Converted amounts (≈) assume the structure as drawn. Where two headings read alike, the source gives them in different places. Values belong to the molecule of their own block, whether it stands above or below them.
What was measured:
[1] = cited from earlier work
[2] = ELF pharmacokinetics in the COMBINE murine neutropenic pneumonia model; settings: for k el: female, CD-1, mouse, epithelial lining fluid (ELF), sc; for K a-ELF (absorption rate constant into ELF compartment) / V ELF (volume of distribution in ELF compartment): best-fit one-compartment model
Description: (§1) The model followed the COMBINE protocol with laboratory-specific detailed methods as follows.[6] Specific pathogen free CD-1, female mice 6–8 weeks old were acquired from Charles River Laboratories, Inc. (Raleigh, NC, USA). All animals were allowed to acclimatize for 72 h before any study procedures and were housed as groups of six at controlled room temperature in HEPA-filtered cages (Innovive, San Diego, CA, USA). Study rooms were maintained with diurnal cycles (12 h light/12 h dark) and food and water were provided ad libitum.
(§2) Neutropenia was achieved through 0.2 mL intraperitoneal (IP) administrations of cyclophosphamide 150 mg/kg on day minus 4 and an additional 100 mg/kg on day minus 1. A predictable degree of renal impairment was produced using 5 mg/kg of uranyl nitrate (Electron Microscopy Sciences, Hatfield, PA, USA) dissolved in sterile water administered as a 0.2 mL IP injection on day minus 3. […] Mice were anaesthetised using inhaled isoflurane, manually restrained upright and infected with 50 µL of bacterial suspension via the nares. Each bacterial inoculation suspension was used within 30 minutes of initial preparation.
(§3) The purpose of these studies was to establish HSRs in both plasma and ELF in the COMBINE murine neutropenic pneumonia model equivalent to clinical doses of meropenem (2 g every 8 h as 3 h infusion),[9] cefiderocol (2 g every 8 h as 3 h infusion)[10] and tobramycin (7 mg/kg as 0.5 h infusion)[11–13] based on unbound (free) exposures.
(§4) At predefined timepoints (shown in Figures 1–3), groups of six mice had blood sampled via retro-orbital bleeding (two time points, under anaesthesia with isoflurane 2%–3% v/v in 100% oxygen via inhalation) and/or cardiac puncture (one terminal time point). Proparacaine hydrochloride ophthalmic solution 0.5% was applied to the eye (1–2 drops) after blood sampling via retro-orbital bleeding. The volume of blood collected was 0.15 mL per sample via retro-orbital bleeding with subsequent fluid replacement using 0.2 mL normal saline given IP. Mice were euthanized by CO2 exposure before cardiac puncture. Following blood collection by cardiac puncture, but before cervical dislocation, bronchoalveolar lavage (BAL) fluid was collected from the mice at the same time points. A catheter was inserted into the trachea of the mice, and lungs were lavaged with four separate aliquots of 0.4 mL of normal saline. The BAL fluid was withdrawn immediately after injection and pooled for each animal. Pooled BAL was centrifuged for 10 min at 4°C and the supernatant was collected for analysis.
(§5) Drug concentrations in ELF were estimated by correcting the drug concentration in BAL fluid for the dilution with normal saline during lung lavage using the following formula: compoundELF = compoundBAL × (ureaplasma/ureaBAL), where compoundBAL is the measured drug concentration in the BAL fluid sample and ureaplasma and ureaBAL are the concentrations of urea in paired plasma and BAL fluid samples from each mouse, respectively. Owing to the lack of albumin in BAL fluid, total ELF concentrations were considered unbound.
(§6) Statistical outliers for each respective analyte were removed by the interquartile range method. Previously reported meropenem, cefiderocol and plazomicin (an aminoglycoside similar to tobramycin) plasma HSRs developed in alternative murine models were used as a baseline.[19],[20] Mathematical modifications were made to the baseline regimens as necessary to achieve translational exposures in the COMBINE model and repeat confirmatory PK studies were undertaken for both plasma and ELF.

[3] = design: method as in PMID 17283197, PMID 28848004; settings: murine plasma, previously determined; cited from earlier work
[4] = design: method as in PMID 33371322, PMID 31724042, PMID 15107149; settings: cited from earlier work
[5] = Plasma pharmacokinetics in the COMBINE murine neutropenic pneumonia model; settings: for k el: female, CD-1, mouse, plasma, sc; for K a (absorption rate constant into central compartment) / V plasma (volume of distribution in central compartment): best-fit one-compartment model
Description: as §1, §2, §3, §4, §5, §6

K. pneumoniae CDC 851 = system: K. pneumoniae CDC 851; design: method as in earlier work; settings: cited from earlier work
[6] = Ex vivo tobramycin plasma protein binding in mice; assay type: in vitro ADME; settings: mouse plasma; for fraction unbound at 1 h: subcutaneous
Description: Escalating single doses of tobramycin (2.5, 5 and 10 mg/kg) were administered subcutaneously to determine tobramycin plasma protein binding. Triplicate pooled plasma and ultrafiltrate samples were collected at 1 h (5 mice per replicate, 15 mice per dose) and stored at −80°C until concentration determination. Whole blood was collected in K2EDTA tubes and then subsequently centrifuged at 4°C at 3000g for 10 minutes. Plasma was separated (total plasma) and 900 µL was added to an ultrafiltration device (Centrifree®, Merck Millipore Ltd, Ireland) and centrifuged using a fixed rotor at 10°C at 2000g for an additional 45 minutes to obtain protein free ultrafiltrate. The triplicate free and total tobramycin concentrations were averaged and then free fractions were calculated using the equation: free fraction = concentrationultrafiltrate/concentrationtotal plasma.
Mean percentages of protein binding (±standard deviation) were 27.1% (2.9%), 20.5% (9.3%) and 19.8% (1.5%) at the 1-h timepoint after receiving doses of 2.5, 5 and 10 mg/kg, respectively.

[7] = human; population PK analysis; cited from earlier work
clinical = settings: human, in vivo
Description: as §3

[8] = human plasma, 2 g every 8 h as a 3 h infusion
[9] = human, 7 mg/kg as 0.5 h infusion

k el [2]: 0.0002 s⁻¹ | %fT > MIC for a MIC of 1 µg/mL ([2]; mouse ELF, ELF HSR): 100% | %fT > MIC for a MIC of 2 µg/mL ([2]; mouse ELF, ELF HSR): 100% | %fT > MIC for a MIC of 4 µg/mL ([2]; mouse ELF, ELF HSR): 85% | %fT > MIC for a MIC of 8 µg/mL ([2]; mouse ELF, ELF HSR): 50% | %fT > MIC for a MIC of 16 µg/mL ([2]; mouse ELF, ELF HSR): 14% | %fT > MIC for a MIC of 32 µg/mL ([2]; mouse ELF, ELF HSR): 0% | %fT > MIC for a MIC of 64 µg/mL ([2]; mouse ELF, ELF HSR): 0% | %fT > MIC for a MIC of 128 µg/mL ([2]; mouse ELF, ELF HSR): 0% | K a-ELF (absorption rate constant into ELF compartment) ([2]; mouse ELF): 1.94 h⁻¹ | V ELF (volume of distribution in ELF compartment) ([2]; mouse ELF): 0.33 L/kg | k el [5]: 0.000206 s⁻¹ | K a (absorption rate constant into central compartment) ([5]; mouse plasma): 21.71 h⁻¹ | V plasma (volume of distribution in central compartment) ([5]; mouse plasma): 0.19 L/kg | %fT > MIC for a MIC of 1 µg/mL ([5]; mouse plasma, plasma HSR): 100% | %fT > MIC for a MIC of 2 µg/mL ([5]; mouse plasma, plasma HSR): 100% | %fT > MIC for a MIC of 4 µg/mL ([5]; mouse plasma, plasma HSR): 91% | %fT > MIC for a MIC of 8 µg/mL ([5]; mouse plasma, plasma HSR): 76% | %fT > MIC for a MIC of 16 µg/mL ([5]; mouse plasma, plasma HSR): 50% | %fT > MIC for a MIC of 32 µg/mL ([5]; mouse plasma, plasma HSR): 16% | %fT > MIC for a MIC of 64 µg/mL ([5]; mouse plasma, plasma HSR): 0% | %fT > MIC for a MIC of 128 µg/mL ([5]; mouse plasma, plasma HSR): 0%
SMILES: CC(C)(O/N=C(\C(=O)N[C@@H]1C(=O)N2C(C(=O)[O-])=C(C[N+]3(CCNC(=O)c4ccc(O)c(O)c4Cl)CCCC3)CS[C@H]12)c1csc(N)n1)C(=O)O [Cefiderocol, cefiderocol]
%fT > MIC for a MIC of 1 µg/mL [1, 8]: 100% | %fT > MIC for a MIC of 2 µg/mL [1, 8]: 99% | %fT > MIC for a MIC of 4 µg/mL [1, 8]: 98% | %fT > MIC for a MIC of 8 µg/mL [1, 8]: 76% | %fT > MIC for a MIC of 16 µg/mL [1, 8]: 48% | %fT > MIC for a MIC of 32 µg/mL [1, 8]: 11% | %fT > MIC for a MIC of 64 µg/mL [1, 8]: 0% | %fT > MIC for a MIC of 128 µg/mL [1, 8]: 0% | Murine protein binding [3]: 31.6% | Human plasma protein binding [4]: 58%

SMILES: NC[C@H]1O[C@H](O[C@H]2[C@H](O)[C@@H](O[C@H]3O[C@H](CO)[C@@H](O)[C@H](N)[C@H]3O)[C@H](N)C[C@@H]2N)[C@H](N)C[C@@H]1O [Tobramycin, tobramycin]
MIC (K. pneumoniae CDC 851): 16 µg/mL (≈ 34.2 µM) | plasma fAUC0-24 [1, 9]: 103000 ng·h/mL | plasma fCmax [1, 9]: 18.3 mg/L | Unbound fraction in plasma ([6]; average of 2.5, 5 and 10 mg/kg): 77.6% | fraction unbound at 1 h ([6]; 1 h after 2.5 mg/kg subcutaneously, ultrafiltration, read-out: Mean percentage of protein binding (±standard deviation) (converted)): 0.729 | fraction unbound at 1 h ([6]; 1 h after 5 mg/kg subcutaneously, ultrafiltration, read-out: Mean percentage of protein binding (±standard deviation) (converted)): 0.795 | fraction unbound at 1 h ([6]; 1 h after 10 mg/kg subcutaneously, ultrafiltration, read-out: Mean percentage of protein binding (±standard deviation) (converted)): 0.802 | fraction unbound at 1 h ([6]; average of 2.5, 5 and 10 mg/kg, read-out: Plasma protein binding, average across the three doses (converted)): 0.776 | AUCELF/AUCplasma penetration ratio [7]: 0.64 | k el [2]: 9.72e-05 s⁻¹ | K a-ELF (absorption rate constant into ELF compartment) ([2]; mouse ELF): 1.74 h⁻¹ | V ELF (volume of distribution in ELF compartment) ([2]; mouse ELF): 0.79 L/kg | ELF fAUC0-24 ([2]; murine, ELF HSR): 76000 ng·h/mL | ELF fCmax ([2]; murine, ELF HSR): 6.6 mg/L | Kp (clinical): 0.69 | ELF fAUC0-24 (clinical; 7 mg/kg): 79000 ng·h/mL | ELF fCmax (clinical; 7 mg/kg): 6.8 mg/L | Human plasma protein binding [4]: 10% | k el [5]: 8.61e-05 s⁻¹ | K a (absorption rate constant into central compartment) ([5]; mouse plasma): 23.68 h⁻¹ | V plasma (volume of distribution in central compartment) ([5]; mouse plasma): 0.37 L/kg | plasma fAUC0-24 ([5]; murine, plasma HSR): 103000 ng·h/mL | plasma fCmax ([5]; murine, plasma HSR): 17.7 mg/L

Source: article PMC11787888, “Development and confirmation of humanized plasma and epithelial lining fluid exposures of meropenem, cefiderocol and tobramycin in a standardized neutropenic murine pneumonia model” (Journal of Antimicrobial Chemotherapy, 2024)
